Assay results as given in PubChem BioAssay AID248 (DTP/NCI, 2004).
Several values for one entry are separate records, joined by “and”; a condition that tells them apart may be missing. Identical values can stand only once. Toxic doses and inconclusive results are not listed. Cut-off read from the data, not from the text of the source: active = T/C of 150% or more; inactive = T/C below 125%.

Tested on: L1210 leukemia ip in BDF1 mice, survival T/C
Assay: NCI In Vivo Anticancer Drug Screen. Data for tumor model L1210 Leukemia (intraperitoneal) in B6D2F1 (BDF1) mice
Conditions: endpoint: mean survival time, higher = longer survival
Method in brief: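 Tumor cells were implanted, animals were treated, and survival was followed. The result divides the treated measurement by the vehicle-control measurement.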

[1] = dose: 100.0 mg/kg/injection, schedule: Q01DX009 (ip), vehicle: Klucel (hydroxypropylcellulose) (HPC)
[2] = dose: 200.0 mg/kg/injection, schedule: Q01DX009 (ip), vehicle: Klucel (hydroxypropylcellulose) (HPC)
[3] = dose: 400.0 mg/kg/injection, schedule: Q01DX009 (ip), vehicle: Klucel (hydroxypropylcellulose) (HPC)
[4] = dose: 100.0 mg/kg/injection, schedule: Q01DX001 (ip), vehicle: saline
[5] = dose: 100.0 mg/kg/injection, schedule: Q01DX009 (ip), vehicle: saline with Tween-80
[6] = dose: 100.0 mg/kg/injection, schedule: Q04DX003 (ip), vehicle: saline with Tween-80
[7] = dose: 200.0 mg/kg/injection, schedule: Q01DX009 (ip), vehicle: saline with Tween-80
[8] = dose: 200.0 mg/kg/injection, schedule: Q04DX003 (ip), vehicle: saline with Tween-80
[9] = dose: 400.0 mg/kg/injection, schedule: Q04DX003 (ip), vehicle: saline with Tween-80
[10] = dose: 400.0 mg/kg/injection, schedule: Q01DX001 (ip), vehicle: saline
[11] = dose: 100.0 mg/kg/injection, schedule: Q04DX002 (ip), vehicle: Klucel (hydroxypropylcellulose) (HPC)
[12] = dose: 200.0 mg/kg/injection, schedule: Q04DX002 (ip), vehicle: Klucel (hydroxypropylcellulose) (HPC)
[13] = dose: 400.0 mg/kg/injection, schedule: Q04DX002 (ip), vehicle: Klucel (hydroxypropylcellulose) (HPC)
[14] = dose: 100.0 mg/kg/injection, schedule: Q01DX001 (ip), vehicle: Klucel (hydroxypropylcellulose) (HPC)
[15] = dose: 100.0 mg/kg/injection, schedule: Q04DX003 (ip), vehicle: Klucel (hydroxypropylcellulose) (HPC)
[16] = dose: 200.0 mg/kg/injection, schedule: Q01DX001 (ip), vehicle: Klucel (hydroxypropylcellulose) (HPC)
[17] = dose: 200.0 mg/kg/injection, schedule: Q04DX003 (ip), vehicle: Klucel (hydroxypropylcellulose) (HPC)
[18] = dose: 400.0 mg/kg/injection, schedule: Q01DX001 (ip), vehicle: Klucel (hydroxypropylcellulose) (HPC)

Measured: T/C

COc1ccccc1OCC(=O)N1CCCCC1
inactive: dose: 100.0 mg/kg/injection, schedule: Q04DX002 (ip), vehicle: saline 101 % of control | dose: 200.0 mg/kg/injection, schedule: Q04DX002 (ip), vehicle: saline 107 % of control | dose: 400.0 mg/kg/injection, schedule: Q04DX002 (ip), vehicle: saline 90 % of control

O=C(c1ccccc1)C1Cc2ccccc2C1=O (stereo unspecified)
inactive: [1] 100 % of control | dose: 100.0 mg/kg/injection, schedule: Q04DX003 (ip), vehicle: saline 102 % of control | [2] 114 % of control | dose: 200.0 mg/kg/injection, schedule: Q04DX003 (ip), vehicle: saline 102 % of control | [3] 97 % of control | dose: 400.0 mg/kg/injection, schedule: Q04DX003 (ip), vehicle: saline 102 % of control

CC1(C)N=C(N)N=C(N)N1c1cccc(/C=C/C=C/c2cccc([N+](=O)[O-])c2)c1
inactive: [4] 100 % of control

CCOC(=O)CCN(Cc1ccccc1)CC(C)C(=O)OC (stereo unspecified)
inactive: [5] 102 % of control | [6] 104 % of control | [7] 97 % of control | [8] 91 % of control | dose: 400.0 mg/kg/injection, schedule: Q01DX009 (ip), vehicle: saline with Tween-80 95 % of control | [9] 96 % of control

CC(C)(C)C(=O)C(C)(C)C
inactive: dose: 100.0 mg/kg/injection, schedule: Q01DX001 (ip), vehicle: carboxymethylcellulose (CMC) 106 % of control | dose: 200.0 mg/kg/injection, schedule: Q01DX001 (ip), vehicle: carboxymethylcellulose (CMC) 101 % of control

CNCCCC(CO)NS(=O)(=O)c1ccc(C)cc1 (stereo unspecified)
inactive: dose: 100.0 mg/kg/injection, schedule: Q01DX001 (ip), vehicle: water 94 % of control | dose: 100.0 mg/kg/injection, schedule: Q04DX003 (ip), vehicle: water 92 % of control | dose: 200.0 mg/kg/injection, schedule: Q01DX001 (ip), vehicle: water 97 % of control | dose: 200.0 mg/kg/injection, schedule: Q04DX003 (ip), vehicle: water 100 % of control | dose: 400.0 mg/kg/injection, schedule: Q01DX001 (ip), vehicle: water 97 % of control | dose: 400.0 mg/kg/injection, schedule: Q04DX003 (ip), vehicle: water 87 % of control

CCN(CC)C(=O)Nc1cccc(OC(=O)NC(C)(C)C)c1
inactive: [6] 99 % of control | [8] 103 % of control | [9] 93 % of control

Clc1ccc(OCC2=NCCc3ccccc32)cc1
inactive: dose: 300.0 mg/kg/injection, schedule: Q01DX001 (ip), vehicle: saline 98 % of control | [10] 104 % of control

O=c1[nH]c2ccccc2n1C1CCN(CCCS(=O)(=O)c2ccccc2)CC1
inactive: dose: 200.0 mg/kg/injection, schedule: Q04DX003 (ip), vehicle: gum acacia 91 % of control | dose: 400.0 mg/kg/injection, schedule: Q04DX003 (ip), vehicle: gum acacia 87 % of control

C/C=C1\CN(C(=O)C(NC(=O)C(N)C(O)C(O)COC(N)=O)C2OC(n3cc(CO)c(=O)[nH]c3=O)C(O)C2O)C1C(=O)O (stereo unspecified) (tested in a mixture with another compound)
inactive: [4] 95 % of control | dose: 200.0 mg/kg/injection, schedule: Q01DX001 (ip), vehicle: saline 106 % of control | [10] 105 % of control

Brc1cccc2c1C[n+]1ccccc1-2
inactive: dose: 75.0 mg/kg/injection, schedule: Q01DX001 (ip), vehicle: saline 96 % of control | dose: 150.0 mg/kg/injection, schedule: Q01DX001 (ip), vehicle: saline 92 % of control

O=S=Nc1ccc([N+](=O)[O-])cc1Cl
inactive: [11] 103 % of control | [12] 106 % of control | [13] 100 % of control

Cc1cc(N=Nc2ccccc2)c2cccnc2c1N
inactive: dose: 50.0 mg/kg/injection, schedule: Q04DX003 (ip), vehicle: DMSO 91 % of control | dose: 100.0 mg/kg/injection, schedule: Q04DX003 (ip), vehicle: DMSO 97 % of control

CCOC(=O)c1[nH]c(C)c(CCC(=O)O)c1C
inactive: dose: 12.0 mg/kg/injection, schedule: Q04DX003 (ip), vehicle: Klucel (hydroxypropylcellulose) (HPC) 95 % of control | dose: 25.0 mg/kg/injection, schedule: Q04DX003 (ip), vehicle: Klucel (hydroxypropylcellulose) (HPC) 98 % of control | dose: 50.0 mg/kg/injection, schedule: Q04DX003 (ip), vehicle: Klucel (hydroxypropylcellulose) (HPC) 104 % of control | [14] 97 % of control | [15] 103 % of control | [16] 97 % of control | [17] 98 % of control | [18] 101 % of control

C=C(Br)S(=O)(=O)CC
inactive: dose: 6.25 mg/kg/injection, schedule: Q04DX002 (ip), vehicle: saline 101 % of control | dose: 12.5 mg/kg/injection, schedule: Q04DX002 (ip), vehicle: saline 90 % of control | dose: 25.0 mg/kg/injection, schedule: Q04DX002 (ip), vehicle: Klucel (hydroxypropylcellulose) (HPC) 101 % of control | dose: 25.0 mg/kg/injection, schedule: Q04DX002 (ip), vehicle: saline 111 % of control

COc1ccc(NC(=O)Nc2onc(C)c2C)c(Cl)c1
inactive: [14] 95 % of control | [1] 94 % of control and 100 % of control | [11] 101 % of control | [15] 87 % of control | [16] 97 % of control | [2] 95 % of control and 88 % of control | [12] 95 % of control and 101 % of control | [17] 97 % of control | [18] 104 % of control | [3] 93 % of control and 95 % of control | [13] 96 % of control | dose: 400.0 mg/kg/injection, schedule: Q04DX003 (ip), vehicle: Klucel (hydroxypropylcellulose) (HPC) 88 % of control | dose: 4000.0 mg/kg/injection, schedule: Q04DX002 (ip), vehicle: Klucel (hydroxypropylcellulose) (HPC) 90 % of control

CN(C)CCOC(c1ccccc1)c1ccccc1
inactive: dose: 3.12 mg/kg/injection, schedule: Q01DX009 (ip), vehicle: saline 92 % of control and 96 % of control | dose: 6.25 mg/kg/injection, schedule: Q01DX009 (ip), vehicle: saline 102 % of control and 107 % of control | dose: 12.5 mg/kg/injection, schedule: Q01DX009 (ip), vehicle: saline 100 % of control and 114 % of control | dose: 25.0 mg/kg/injection, schedule: Q01DX009 (ip), vehicle: saline 100 % of control and 102 % of control | dose: 25.0 mg/kg/injection, schedule: Q04DX003 (ip), vehicle: saline 97 % of control | dose: 50.0 mg/kg/injection, schedule: Q01DX009 (ip), vehicle: saline 117 % of control and 91 % of control | dose: 50.0 mg/kg/injection, schedule: Q04DX003 (ip), vehicle: saline 111 % of control

COC(=O)NCc1nc2cc3c[nH][nH]c3cc2n1
inactive: dose: 75.0 mg/kg/injection, schedule: Q01DX001 (ip), vehicle: carboxymethylcellulose (CMC) 91 % of control

COC(=O)C(CCSC)NC(=O)c1ccccc1 (stereo unspecified)
inactive: [5] 93 % of control | [7] 96 % of control
